Where “and” joins values, the source holds several entries; their conditions need not be identical. Identical values can stand only once.
Legend:
Experiment in all cases: Kinase Profiler 10 μM panel
CDK12/cyclinK(h) = CDK12/cyclinK(h) (Homo sapiens (Human), UniProt Q9NYV4)
Protocol: (§1) In vitro kinase assays were conducted using Kinase Profiler services provided by Eurofins. The experimental method was as follows: the small molecule compound to be tested (0.001-10 μM), the protein kinase to be tested were incubated with a buffer containing substrate, 10 mM magnesium acetate, and [γ-^33P-ATP], the reaction was started by adding Mg\TPmix, after incubation for a period of time at room temperature, a 3% phosphate solution was added to the buffer to stop the reaction. Subsequently, 10 μL of the reaction mixture was quantitatively pipetted onto P30 filter paper, which was washed three times with 75 mM phosphate solution and then once with methanol. The P30 filter paper was air-dried and scintillation fluid was added for scintillation counting.

SRPK1(h) = SRPK1(h) (Homo sapiens (Human), UniProt Q96SB4)
Protocol: as §1

DDR1(h) = DDR1(h) (Homo sapiens (Human), UniProt Q08345)
Protocol: as §1

Tie2 (h) = Tie2 (h) (Homo sapiens (Human), UniProt Q02763)
Protocol: as §1

Plk3(h) = Plk3(h) (Homo sapiens (Human), UniProt Q9H4B4)
Protocol: as §1

PRK2(h) = PRK2(h) (Homo sapiens (Human), UniProt Q16513)
Protocol: as §1

Flt3(D835Y)(h) = Flt3(D835Y)(h) (Homo sapiens (Human), UniProt P36888, D835Y)
Protocol: as §1

FGFR1(V561M)(h) = FGFR1(V561M)(h) (Homo sapiens (Human), UniProt P11362, V561M)
Protocol: as §1

PKCζ(h) = PKCζ(h) (Homo sapiens (Human), UniProt Q05513)
Protocol: as §1

cKit(D816V)(h) = cKit(D816V)(h) (Homo sapiens (Human), UniProt P10721, D816V)
Protocol: as §1

KDR(h) = KDR(h) (Homo sapiens (Human), UniProt P35968)
Protocol: as §1

SIK2(h) = SIK2(h) (Homo sapiens (Human), UniProt Q9H0K1)
Protocol: as §1

B-Raf(h) = B-Raf(h) (Homo sapiens (Human), UniProt P15056)
Protocol: as §1

STK25(h) = STK25(h) (Homo sapiens (Human), UniProt O00506)
Protocol: as §1

MLK2(h) = MLK2(h) (Homo sapiens (Human), UniProt Q02779)
Protocol: The experimental method was as follows: the small molecule compound to be tested (0.001-10 μM), the protein kinase to be tested were incubated with a buffer containing substrate, 10 mM magnesium acetate, and [γ-^33P-ATP], the reaction was started by adding Mg\TPmix, after incubation for a period of time at room temperature, a 3% phosphate solution was added to the buffer to stop the reaction. Subsequently, 10 μL of the reaction mixture was quantitatively pipetted onto P30 filter paper, which was washed three times with 75 mM phosphate solution and then once with methanol. The P30 filter paper was air-dried and scintillation fluid was added for scintillation counting.

Rsk4(h) = Rsk4(h) (Homo sapiens (Human), UniProt Q9UK32)
Protocol: as §1

Plk1(h) = Plk1(h) (Homo sapiens (Human), UniProt P53350)
Protocol: as §1

cKit(V654A)(h) = cKit(V654A)(h) (Homo sapiens (Human), UniProt P10721, V654A)
Protocol: as §1

mTOR(h) = mTOR(h) (Homo sapiens (Human), UniProt P42345)
Protocol: as §1

PASK(h) = PASK(h) (Homo sapiens (Human), UniProt Q96RG2)
Protocol: as §1

DMPK(h) = DMPK(h) (Homo sapiens (Human), UniProt Q09013)
Protocol: as §1

cKit(h) = cKit(h) (Homo sapiens (Human), UniProt P10721)
Protocol: as §1

Fms(Y969C)(h) = Fms(Y969C)(h) (Homo sapiens (Human), UniProt P07333, Y969C)
Protocol: as §1

CaMKIIα(h) = CaMKIIα(h) (Homo sapiens (Human), UniProt Q9UQM7)
Protocol: as §1

Src(1-530)(h) = Src(1-530)(h) (Homo sapiens (Human), UniProt P12931)
Protocol: as §1

PKCβI(h) = PKCβI(h) (Homo sapiens (Human), UniProt P05771)
Protocol: as §1

PDK1(h) = PDK1(h) (Homo sapiens (Human), UniProt O15530)
Protocol: as §1

p70S6K(h) = p70S6K(h) (Homo sapiens (Human), UniProt P23443)
Protocol: as §1

MLCK(h) = system: MLCK(h)
Protocol: as §1

BRK(h) = BRK(h) (Homo sapiens (Human), UniProt Q13882)
Protocol: as §1

Rse(h) = Rse(h) (Homo sapiens (Human), UniProt Q06418)
Protocol: as §1

TrkA(h) = TrkA(h) (Homo sapiens (Human), UniProt P04629)
Protocol: as §1

MSSK1(h) = MSSK1(h) (Homo sapiens (Human), UniProt Q9UPE1)
MSSK1(h), sequence (Q9UPE1 whole entry): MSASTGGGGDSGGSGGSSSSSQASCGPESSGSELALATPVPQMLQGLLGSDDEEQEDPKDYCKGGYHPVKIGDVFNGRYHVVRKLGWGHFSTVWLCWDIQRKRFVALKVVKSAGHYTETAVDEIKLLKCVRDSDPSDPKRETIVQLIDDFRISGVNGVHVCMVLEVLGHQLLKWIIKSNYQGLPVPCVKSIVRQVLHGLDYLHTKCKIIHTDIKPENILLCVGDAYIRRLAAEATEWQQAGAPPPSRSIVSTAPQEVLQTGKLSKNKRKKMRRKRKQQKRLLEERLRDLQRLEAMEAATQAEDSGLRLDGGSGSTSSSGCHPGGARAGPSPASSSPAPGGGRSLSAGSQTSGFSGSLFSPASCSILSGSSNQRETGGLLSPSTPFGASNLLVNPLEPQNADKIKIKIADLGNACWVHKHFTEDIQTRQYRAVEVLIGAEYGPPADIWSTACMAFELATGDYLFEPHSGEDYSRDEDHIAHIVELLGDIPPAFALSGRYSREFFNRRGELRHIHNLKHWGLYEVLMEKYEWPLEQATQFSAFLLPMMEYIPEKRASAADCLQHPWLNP
Protocol: as §1

FGFR1(V561M)(h), sequence (P11362 22-822 V561M): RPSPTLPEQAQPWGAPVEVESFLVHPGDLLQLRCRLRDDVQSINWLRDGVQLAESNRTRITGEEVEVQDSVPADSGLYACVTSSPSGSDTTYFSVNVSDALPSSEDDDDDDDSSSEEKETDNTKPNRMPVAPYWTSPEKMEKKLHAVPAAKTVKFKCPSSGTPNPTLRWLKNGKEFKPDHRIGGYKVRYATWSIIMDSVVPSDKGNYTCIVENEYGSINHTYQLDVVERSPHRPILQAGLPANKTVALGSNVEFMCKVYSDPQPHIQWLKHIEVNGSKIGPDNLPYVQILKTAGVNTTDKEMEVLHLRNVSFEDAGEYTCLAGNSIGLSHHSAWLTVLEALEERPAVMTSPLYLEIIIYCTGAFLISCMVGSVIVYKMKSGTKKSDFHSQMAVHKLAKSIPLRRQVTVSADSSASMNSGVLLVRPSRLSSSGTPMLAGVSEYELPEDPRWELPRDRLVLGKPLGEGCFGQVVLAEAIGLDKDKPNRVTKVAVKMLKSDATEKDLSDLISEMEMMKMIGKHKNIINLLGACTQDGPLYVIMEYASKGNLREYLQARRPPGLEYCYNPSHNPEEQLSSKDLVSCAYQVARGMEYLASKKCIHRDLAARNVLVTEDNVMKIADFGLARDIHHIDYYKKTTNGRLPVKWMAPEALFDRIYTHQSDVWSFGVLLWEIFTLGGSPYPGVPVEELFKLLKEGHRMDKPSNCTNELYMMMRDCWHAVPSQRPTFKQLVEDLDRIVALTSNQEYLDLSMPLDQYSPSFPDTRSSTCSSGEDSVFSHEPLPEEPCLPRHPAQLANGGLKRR
KDR(h), sequence (P35968 20-1356): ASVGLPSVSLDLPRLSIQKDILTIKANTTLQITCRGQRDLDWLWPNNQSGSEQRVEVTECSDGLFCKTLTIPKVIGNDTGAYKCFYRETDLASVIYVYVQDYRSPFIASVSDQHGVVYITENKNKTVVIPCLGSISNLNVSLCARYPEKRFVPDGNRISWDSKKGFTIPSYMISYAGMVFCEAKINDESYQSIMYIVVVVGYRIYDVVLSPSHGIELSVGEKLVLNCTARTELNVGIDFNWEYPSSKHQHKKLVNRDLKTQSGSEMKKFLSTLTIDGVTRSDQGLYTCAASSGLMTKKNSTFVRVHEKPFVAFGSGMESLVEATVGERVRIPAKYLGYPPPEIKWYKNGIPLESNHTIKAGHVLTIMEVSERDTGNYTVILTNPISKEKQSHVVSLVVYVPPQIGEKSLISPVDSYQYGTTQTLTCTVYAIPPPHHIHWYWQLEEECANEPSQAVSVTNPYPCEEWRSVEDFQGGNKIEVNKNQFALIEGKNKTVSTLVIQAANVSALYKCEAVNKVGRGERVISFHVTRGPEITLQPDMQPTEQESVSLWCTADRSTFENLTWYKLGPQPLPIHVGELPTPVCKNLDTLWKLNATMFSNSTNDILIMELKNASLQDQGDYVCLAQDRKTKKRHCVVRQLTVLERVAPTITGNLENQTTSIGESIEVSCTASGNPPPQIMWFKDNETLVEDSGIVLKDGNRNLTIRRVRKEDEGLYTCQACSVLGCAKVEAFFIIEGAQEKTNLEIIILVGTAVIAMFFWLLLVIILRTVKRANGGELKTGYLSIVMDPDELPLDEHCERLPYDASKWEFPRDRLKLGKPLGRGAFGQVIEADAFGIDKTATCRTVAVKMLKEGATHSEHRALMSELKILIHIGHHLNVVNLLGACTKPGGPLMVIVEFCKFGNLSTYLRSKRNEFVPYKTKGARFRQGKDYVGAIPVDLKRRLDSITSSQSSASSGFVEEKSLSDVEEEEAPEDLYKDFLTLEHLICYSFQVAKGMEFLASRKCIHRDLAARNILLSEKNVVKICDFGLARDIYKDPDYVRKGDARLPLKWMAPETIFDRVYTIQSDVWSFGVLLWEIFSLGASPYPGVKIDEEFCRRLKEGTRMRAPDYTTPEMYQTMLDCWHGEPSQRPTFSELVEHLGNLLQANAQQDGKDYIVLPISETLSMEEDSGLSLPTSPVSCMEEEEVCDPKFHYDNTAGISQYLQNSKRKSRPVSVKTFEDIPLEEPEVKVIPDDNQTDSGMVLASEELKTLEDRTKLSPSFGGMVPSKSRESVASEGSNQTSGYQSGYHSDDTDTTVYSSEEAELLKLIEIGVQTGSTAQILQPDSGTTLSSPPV
PDK1(h), sequence (O15530 whole entry): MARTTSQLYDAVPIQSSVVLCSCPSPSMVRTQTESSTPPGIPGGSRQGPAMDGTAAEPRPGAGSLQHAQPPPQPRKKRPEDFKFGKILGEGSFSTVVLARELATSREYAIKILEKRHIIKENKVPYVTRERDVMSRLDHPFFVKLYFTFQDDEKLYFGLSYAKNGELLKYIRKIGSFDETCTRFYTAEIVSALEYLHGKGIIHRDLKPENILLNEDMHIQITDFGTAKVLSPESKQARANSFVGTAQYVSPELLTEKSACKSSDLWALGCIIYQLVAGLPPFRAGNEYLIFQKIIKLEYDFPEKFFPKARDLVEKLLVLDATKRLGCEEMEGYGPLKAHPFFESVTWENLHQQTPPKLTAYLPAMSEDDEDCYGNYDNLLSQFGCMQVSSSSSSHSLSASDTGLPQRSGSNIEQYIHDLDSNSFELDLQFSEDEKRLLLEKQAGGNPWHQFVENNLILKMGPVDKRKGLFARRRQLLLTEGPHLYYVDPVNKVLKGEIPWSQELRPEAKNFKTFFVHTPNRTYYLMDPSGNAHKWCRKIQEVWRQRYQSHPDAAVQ
cKit(V654A)(h), sequence (P10721 26-976 V654A): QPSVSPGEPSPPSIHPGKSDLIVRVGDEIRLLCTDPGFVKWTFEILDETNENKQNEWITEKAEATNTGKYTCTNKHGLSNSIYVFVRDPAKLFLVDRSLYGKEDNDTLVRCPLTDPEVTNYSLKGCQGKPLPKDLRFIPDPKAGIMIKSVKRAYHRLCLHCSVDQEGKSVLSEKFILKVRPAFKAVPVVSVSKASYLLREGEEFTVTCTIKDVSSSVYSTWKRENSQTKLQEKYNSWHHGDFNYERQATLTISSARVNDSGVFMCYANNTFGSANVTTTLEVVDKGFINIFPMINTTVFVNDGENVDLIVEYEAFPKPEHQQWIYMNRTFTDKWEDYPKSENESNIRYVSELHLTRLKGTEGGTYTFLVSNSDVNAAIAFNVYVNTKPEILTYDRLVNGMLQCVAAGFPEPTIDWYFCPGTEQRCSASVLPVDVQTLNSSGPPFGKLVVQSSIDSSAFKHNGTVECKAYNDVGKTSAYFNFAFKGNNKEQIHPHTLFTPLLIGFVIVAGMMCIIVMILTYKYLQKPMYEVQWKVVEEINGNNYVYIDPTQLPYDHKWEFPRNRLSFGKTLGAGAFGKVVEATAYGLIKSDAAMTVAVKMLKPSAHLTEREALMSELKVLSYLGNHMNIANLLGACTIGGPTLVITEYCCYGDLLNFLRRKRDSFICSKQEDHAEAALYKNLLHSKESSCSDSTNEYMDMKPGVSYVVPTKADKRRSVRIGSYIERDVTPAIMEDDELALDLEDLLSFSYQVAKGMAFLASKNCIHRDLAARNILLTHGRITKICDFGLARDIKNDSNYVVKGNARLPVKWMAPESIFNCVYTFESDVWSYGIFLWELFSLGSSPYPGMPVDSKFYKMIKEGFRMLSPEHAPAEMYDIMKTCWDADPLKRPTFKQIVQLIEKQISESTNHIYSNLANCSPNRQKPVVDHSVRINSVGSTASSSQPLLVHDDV
Rsk4(h), sequence (Q9UK32 whole entry): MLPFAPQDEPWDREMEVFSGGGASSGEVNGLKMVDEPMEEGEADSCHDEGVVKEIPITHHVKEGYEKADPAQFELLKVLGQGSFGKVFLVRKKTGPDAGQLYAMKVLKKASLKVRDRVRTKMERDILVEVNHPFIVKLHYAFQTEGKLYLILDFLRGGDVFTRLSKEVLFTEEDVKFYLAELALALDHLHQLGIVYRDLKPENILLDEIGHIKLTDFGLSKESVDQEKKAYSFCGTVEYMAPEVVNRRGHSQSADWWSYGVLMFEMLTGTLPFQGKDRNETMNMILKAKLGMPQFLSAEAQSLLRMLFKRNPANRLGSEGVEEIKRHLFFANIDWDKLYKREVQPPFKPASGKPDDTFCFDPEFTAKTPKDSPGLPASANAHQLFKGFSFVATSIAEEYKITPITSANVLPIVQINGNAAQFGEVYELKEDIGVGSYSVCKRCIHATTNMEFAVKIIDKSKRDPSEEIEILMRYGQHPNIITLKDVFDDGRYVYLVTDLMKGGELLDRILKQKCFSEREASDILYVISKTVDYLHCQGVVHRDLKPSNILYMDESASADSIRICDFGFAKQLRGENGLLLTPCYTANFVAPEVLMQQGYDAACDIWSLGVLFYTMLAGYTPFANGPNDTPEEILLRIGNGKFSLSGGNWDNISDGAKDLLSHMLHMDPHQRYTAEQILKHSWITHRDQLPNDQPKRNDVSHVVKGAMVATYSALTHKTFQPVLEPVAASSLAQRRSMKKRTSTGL
cKit(h), sequence (P10721 26-976): as the sequence (P10721 26-976 V654A) above, with A629V counted along it
cKit(D816V)(h), sequence (P10721 26-976 D816V): as the sequence (P10721 26-976 V654A) above, with A629V, D791V counted along it

SMILES: C[C@H](NC(=O)c1c[nH]c2ccc(-c3ccc4nc(NC(=O)C5CC5)sc4c3)cc12)c1cccc(F)c1 [Compound 34, (S)-5-(2-(cyclopropanecarboxamido)benzo[d]thiazol-6-yl)-N-(1-(3-fluorophenyl)ethyl)-1H-indole-3-carboxamide]
- Inhibition ratio (CDK12/cyclinK(h)): 21%
- Inhibition ratio (SRPK1(h)): 29%
- Inhibition ratio (DDR1(h)): 51%
- Inhibition ratio (Tie2 (h)): 96%
- Inhibition ratio (Plk3(h)): 9%
- Inhibition ratio (PRK2(h)): 0%
- Inhibition ratio (Flt3(D835Y)(h)): 82%
- Inhibition ratio (FGFR1(V561M)(h)): 80%
- Inhibition ratio (PKCζ(h)): 10%
- Inhibition ratio (cKit(D816V)(h)): 0%
- Inhibition ratio (KDR(h)): 83%
- Inhibition ratio (SIK2(h)): 39%
- Inhibition ratio (B-Raf(h)): 20%
- Inhibition ratio (STK25(h)): 2%
- Inhibition ratio (MLK2(h)): 99%
- Inhibition ratio (Rsk4(h)): −15%
- Inhibition ratio (Plk1(h)): 8%
- Inhibition ratio (cKit(V654A)(h)): −1%
- Inhibition ratio (mTOR(h)): −7%
- Inhibition ratio (PASK(h)): −25%
- Inhibition ratio (DMPK(h)): 10%
- Inhibition ratio (cKit(h)): 4%
- Inhibition ratio (Fms(Y969C)(h)): 18%
- Inhibition ratio (CaMKIIα(h)): 5%
- Inhibition ratio (Src(1-530)(h)): 54%
- Inhibition ratio (PKCβI(h)): 27%
- Inhibition ratio (PDK1(h)): 19%
- Inhibition ratio (p70S6K(h)): 25%
- Inhibition ratio (MLCK(h)): 14%
- Inhibition ratio (BRK(h)): 4%
- Inhibition ratio (Rse(h)): 69%
- Inhibition ratio (TrkA(h)): 102%
- Inhibition ratio (MSSK1(h)): 24%

SMILES: C[C@H](NC(=O)c1cn(C)c2ccc(-c3ccn4nc(NC(=O)C5CC5)nc4c3)cc12)c1cccc(F)c1 [Compound 94, (S)-5-(2-(cyclopropanecarboxamido)-[1,2,4]triazolo[1,5-a]pyridin-7-yl)-N-(1-(3-fluorophenyl)ethyl)-1-methyl-1H-indole-3-carboxamide]
- Inhibition ratio/% (CDK12/cyclinK(h)): −8%
- Inhibition ratio/% (SRPK1(h)): 50%
- Inhibition ratio/% (DDR1(h)): 21%
- Inhibition ratio/% (Tie2 (h)): 30%
- Inhibition ratio/% (Plk3(h)): 12%
- Inhibition ratio/% (PRK2(h)): −4%
- Inhibition ratio/% (Flt3(D835Y)(h)): 12%
- Inhibition ratio/% (FGFR1(V561M)(h)): 45% and 30%
- Inhibition ratio/% (PKCζ(h)): −2%
- Inhibition ratio/% (cKit(D816V)(h)): 75%
- Inhibition ratio/% (KDR(h)): −12%
- Inhibition ratio/% (SIK2(h)): −4%
- Inhibition ratio/% (B-Raf(h)): −5%
- Inhibition ratio/% (STK25(h)): 26%
- Inhibition ratio/% (MLK2(h)): 99%
- Inhibition ratio/% (Rsk4(h)): 3%
- Inhibition ratio/% (Plk1(h)): 26%
- Inhibition ratio/% (cKit(V654A)(h)): 68%
- Inhibition ratio/% (mTOR(h)): −11%
- Inhibition ratio/% (PASK(h)): 53%
- Inhibition ratio/% (DMPK(h)): −2%
- Inhibition ratio/% (cKit(h)): 21%
- Inhibition ratio/% (Fms(Y969C)(h)): 13%
- Inhibition ratio/% (CaMKIIα(h)): 76%
- Inhibition ratio/% (Src(1-530)(h)): 20%
- Inhibition ratio/% (PKCβI(h)): 6%
- Inhibition ratio/% (PDK1(h)): 18%
- Inhibition ratio/% (p70S6K(h)): −18%
- Inhibition ratio/% (MLCK(h)): 14%
- Inhibition ratio/% (BRK(h)): 47%
- Inhibition ratio/% (Rse(h)): 53%
- Inhibition ratio/% (TrkA(h)): −12%
- Inhibition ratio/% (MSSK1(h)): −12%

— US20230365546A1, “5-SUBSTITUTED INDOLE 3-AMIDE DERIVATIVES, PREPARATION METHOD AND USE THEREOF” (ORIGIANT PHARMACEUTICAL CO., LTD, priority 2020, published 2023)
